Columns and labels:
[1] = Mixing compatibility of additives with zinc chloride fixative paste; type: physicochemical; settings: for mixing with the zinc chloride fixative paste: additive in low concentration
Method: Podophyllin is a natural plant extract from the dried roots of either Podophyllum peltatum or P. emodi. It is an antimitotic agent used for many years in the treatment of human warts. (Fitzpatrick T B, et al. Dermatology in General Medicine, McGraw-Hill 1999, p. 2724.) Podophyllin is added at a 0.01% concentration, although a wide range of concentrations may be acceptable from 0.001% to 90% or greater, depending on the zinc chloride formulation employed.

[2] = inadvertent extravasation; far greater concentration and dosage than in the paste; tenderness, erythema, skin discoloration, swelling; cited from earlier work
HIV = settings: cited from earlier work

Compound: O=c1[nH]cc(F)c(=O)[nH]1 [fluorouracil]
- mixing with the zinc chloride fixative paste [1]: completely compatible and mix fully

Compound: CC(=O)O[C@H]1C(=O)[C@@]2(C)[C@H]([C@H](OC(=O)c3ccccc3)[C@]3(O)C[C@H](OC(=O)[C@H](O)[C@@H](NC(=O)c4ccccc4)c4ccccc4)C(C)=C1C3(C)C)[C@]1(OC(C)=O)CO[C@@H]1C[C@@H]2O [paclitaxel]
- mixing with the zinc chloride fixative paste [1]: mixes completely and fully
- paste consistency and viscosity after addition ([1]; paclitaxel in low concentration): remains unchanged
- local skin reactions [2]: mild

Compound: NC(N)=O [urea]
- mixing with the zinc chloride fixative paste [1]: completely compatible and mix fully

Compound: [Cl-].[Cl-].[Zn+2] [zinc chloride]
- inactivation of HIV (HIV): inactivated
